From patent publication EP4755891A1, “ARF1 INHIBITOR AND USE THEREOF” (AOBIO PHARMACEUTICAL CO., LTD., priority 2023, dated 2025)

How the values were obtained:
[1] = Permeability in Caco-2 cells; assay type: in vitro ADME; conditions: human, Caco-2, pH 7.4, 2.00 µM
Experimental: (§1) The permeability of Compound 9 was evaluated using Caco-2 cells. The transport buffer used in this study was HBSS with 10.0 mM HEPES, pH 7.40±0.05. The test concentration was 2.00 µM, and a bidirectional test was performed on the test compound. Digoxin was repeatedly tested bidirectionally at 10.0 µM, while nadolol and metoprolol were repeatedly tested in the A-B direction at 2.00 µM. The final DMSO concentration was adjusted to less than 1%. The mixture was incubated at 37.0°C, 5% CO2, saturated humidity, without shaking in a CO2 incubator for 2 hours. All samples were mixed with acetonitrile containing internal standards and centrifuged at 3220 × g for 10 mins. The concentrations of the test compound and reference compound in the initial solution, donor solution, and acceptor solution were determined by the LC-MS/MS, using the analyte/internal standard peak area ratio.

[2] = tested on: Caco-2 cells; experiment: Permeability in Caco-2 cells; assay type: in vitro ADME; conditions: Caco-2, conclusion in words
Experimental: as §1

[3] = tested on: CCL5; experiment: Upregulation of chemokine CCL5 expression (quantitative RT-PCR); assay type: cell-based, Murine; conditions: CT26 cells; FIG. 5
Experimental: In this example, the upregulation of chemokine CCL5 expression induced by the treatment of Compounds 3 and 9 synthesized in the above preparation examples was tested. Quantitative RT-PCR was used to measure the expression level of chemokine CCL5 in CT26 cells treated with DMSO, Compound 3, or Compound 9.

[4] = Plasma stability, human plasma; assay type: in vitro ADME; conditions: 2.0 µM, 37°C
Experimental: At 37°C, 2.0 µM of the compound was co-incubated with plasma samples from five species (mouse, rat, dog, cynomolgus monkey, human) for 120 minutes. The concentration of the compound in the samples was detected by the liquid chromatography-tandem mass spectrometry (LC-MS/MS) method, and the half-life (T1/2) was calculated.

[5] = tested on: Drosophila orthotopic tumors; experiment: Inhibition of orthotopic tumor growth in Drosophila; assay type: in vivo; conditions: 5 µM in food, 4 days; Ras^V12-PMML clones; FIG. 7
Experimental: In this example, the inhibitory effects of Compounds 3 and 9 synthesized in the above preparation examples on the growth of Drosophila orthotopic tumors were tested. As previously described, renal stem cell tumor clusters were induced by expressing Ras in Drosophila renal stem cell (Ras^V12-PMML) clones (Singh et al., 2016). The Drosophila carrying Ras^V12-PMML clones were cultured with normal food at room temperature for 4 days to allow tumor growth. They were then switched to food containing the indicated drugs for an additional 4 days, followed by feeding the Drosophila carrying Ras^V12-PMML with normal food containing DMSO or 5 µM Compound 3 or Compound 9. In the indicated groups, the number of esg>GFP + tumor cells per 5×10^3 µm^2 area was quantified to characterize tumor size.

Cc1csc2ncnc(Nc3ccc4c(c3)ncn4C)c12 [Compound 9, 5-Methyl-N-(1-methyl-1H-benzo[d]imidazol-5-yl)thieno[2,3-d]pyrimidin-4-amine]
Papp A→B at 2 h, 2 µM ([1]; 2 hours, pH 7.40±0.05): 29 ×10⁻⁶ cm/s | Papp B→A at 2 h, 2 µM ([1]; 2 hours, pH 7.40±0.05): 20.7 ×10⁻⁶ cm/s | efflux ratio at 2 h, 2 µM ([1]; bidirectional, read-out: Efflux Ratio (ER)): 0.714 | cellular permeability [2]: high cellular permeability | substrate of the efflux transporter P-gp [2]: unlikely to be a substrate of the efflux transporter P-gp | expression of the chemokine CCL5 [3]: effectively promote the expression | remaining amount in plasma ([4]; time point 0 min): 100.0% | remaining amount in plasma ([4]; time point 10 min): 99.8% | remaining amount in plasma ([4]; time point 30 min): 108.9% | remaining amount in plasma ([4]; time point 60 min): 113.3% | remaining amount in plasma ([4]; time point 120 min): 104.6% | orthotopic tumor growth in Drosophila [5]: effectively inhibit orthotopic tumor growth
